According to patent publication US20260256742A1, “ANDROGEN RECEPTOR ANTAGONISTS FOR THE TREATMENT OF PATIENTS WITH BIOCHEMICAL RECURRENCE OF HORMONE SENSITIVE PROSTATE CANCER” (BAYER CONSUMER CARE AG, priority 2023, published 2026):
Entries after “also recorded” stand apart in the source; their conditions may differ. Where two headings read alike, the source gives them in different places.

Tests used:
[1] = cited from earlier work
[2] = tested on: AR; details: cited from earlier work
[3] = tested on: nine CYP isoforms; assay: in vitro CYP inhibition; format: in vitro ADME; details: rank order and mechanistic static assessment
[4] = tested on: human prostate cancer xenograft models; details: cited from earlier work
[5] = molecular target: T1, organic anion transporter (OAT)3 (Homo sapiens, UniProt Q8TCC7); details: in vitro; cited from earlier work
T1 sequence (Q8TCC7 1-542): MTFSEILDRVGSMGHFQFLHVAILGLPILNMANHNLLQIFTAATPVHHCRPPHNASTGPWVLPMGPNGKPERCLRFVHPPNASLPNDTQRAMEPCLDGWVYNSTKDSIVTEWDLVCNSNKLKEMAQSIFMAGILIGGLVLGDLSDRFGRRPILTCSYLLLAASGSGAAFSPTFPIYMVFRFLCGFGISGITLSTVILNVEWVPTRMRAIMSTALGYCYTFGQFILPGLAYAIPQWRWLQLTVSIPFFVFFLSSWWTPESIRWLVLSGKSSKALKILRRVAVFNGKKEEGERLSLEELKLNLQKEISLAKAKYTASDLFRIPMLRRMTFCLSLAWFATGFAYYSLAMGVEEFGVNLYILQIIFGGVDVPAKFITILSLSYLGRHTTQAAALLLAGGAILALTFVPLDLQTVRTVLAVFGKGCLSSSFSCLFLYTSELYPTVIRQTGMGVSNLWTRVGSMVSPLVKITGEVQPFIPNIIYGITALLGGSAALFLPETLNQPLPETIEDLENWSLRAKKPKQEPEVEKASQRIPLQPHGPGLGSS

[6] = transgenic mouse carcinogenicity study; format: in vivo, 001178-T (hemizygous) RasH 2 mice; details: male and female RasH 2 mice, up to 500 mg/kg/dose BID, at least 26 weeks
[7] = molecular target: P-glycoprotein (P-gp) (Homo sapiens, UniProt P08183); details: cited from earlier work
[8] = molecular target: P-gp (Homo sapiens, UniProt P08183); details: in vitro; cited from earlier work
[9] = molecular target: T2, breast cancer resistance protein (BCRP) (Homo sapiens, UniProt Q9UNQ0); details: cited from earlier work
T2 sequence (Q9UNQ0 1-655): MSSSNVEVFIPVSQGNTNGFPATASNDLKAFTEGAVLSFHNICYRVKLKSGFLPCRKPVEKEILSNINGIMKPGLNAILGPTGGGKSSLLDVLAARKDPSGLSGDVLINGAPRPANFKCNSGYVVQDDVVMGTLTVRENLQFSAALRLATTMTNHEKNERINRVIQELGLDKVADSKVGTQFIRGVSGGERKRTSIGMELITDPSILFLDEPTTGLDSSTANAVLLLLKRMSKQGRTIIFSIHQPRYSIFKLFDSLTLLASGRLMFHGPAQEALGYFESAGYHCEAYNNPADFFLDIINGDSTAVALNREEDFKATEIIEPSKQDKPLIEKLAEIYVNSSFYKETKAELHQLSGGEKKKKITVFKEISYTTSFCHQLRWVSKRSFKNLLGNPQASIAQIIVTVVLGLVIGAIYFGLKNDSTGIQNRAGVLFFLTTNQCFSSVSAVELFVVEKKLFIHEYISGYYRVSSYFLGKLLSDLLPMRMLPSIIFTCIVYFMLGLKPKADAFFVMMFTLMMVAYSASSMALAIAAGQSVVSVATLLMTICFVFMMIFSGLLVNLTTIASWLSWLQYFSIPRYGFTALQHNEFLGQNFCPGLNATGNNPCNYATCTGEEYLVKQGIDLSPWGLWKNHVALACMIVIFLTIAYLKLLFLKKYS

[10] = tested on: CYP2B6; details: in vitro; cited from earlier work
[11] = in vitro and in vivo; cited from earlier work
[12] = molecular target: T3, BCRP (Homo sapiens, UniProt Q9UNQ0); details: in vitro; cited from earlier work
T3 sequence (Q9UNQ0 1-655): T2 sequence (Q9UNQ0 1-655)

[13] = all investigated species including man; cited from earlier work
[14] = dog, in vivo
[15] = tested on: CYP1A2; details: in vitro; cited from earlier work
[16] = rat, in vivo

P-gp, sequence (P08183 whole entry): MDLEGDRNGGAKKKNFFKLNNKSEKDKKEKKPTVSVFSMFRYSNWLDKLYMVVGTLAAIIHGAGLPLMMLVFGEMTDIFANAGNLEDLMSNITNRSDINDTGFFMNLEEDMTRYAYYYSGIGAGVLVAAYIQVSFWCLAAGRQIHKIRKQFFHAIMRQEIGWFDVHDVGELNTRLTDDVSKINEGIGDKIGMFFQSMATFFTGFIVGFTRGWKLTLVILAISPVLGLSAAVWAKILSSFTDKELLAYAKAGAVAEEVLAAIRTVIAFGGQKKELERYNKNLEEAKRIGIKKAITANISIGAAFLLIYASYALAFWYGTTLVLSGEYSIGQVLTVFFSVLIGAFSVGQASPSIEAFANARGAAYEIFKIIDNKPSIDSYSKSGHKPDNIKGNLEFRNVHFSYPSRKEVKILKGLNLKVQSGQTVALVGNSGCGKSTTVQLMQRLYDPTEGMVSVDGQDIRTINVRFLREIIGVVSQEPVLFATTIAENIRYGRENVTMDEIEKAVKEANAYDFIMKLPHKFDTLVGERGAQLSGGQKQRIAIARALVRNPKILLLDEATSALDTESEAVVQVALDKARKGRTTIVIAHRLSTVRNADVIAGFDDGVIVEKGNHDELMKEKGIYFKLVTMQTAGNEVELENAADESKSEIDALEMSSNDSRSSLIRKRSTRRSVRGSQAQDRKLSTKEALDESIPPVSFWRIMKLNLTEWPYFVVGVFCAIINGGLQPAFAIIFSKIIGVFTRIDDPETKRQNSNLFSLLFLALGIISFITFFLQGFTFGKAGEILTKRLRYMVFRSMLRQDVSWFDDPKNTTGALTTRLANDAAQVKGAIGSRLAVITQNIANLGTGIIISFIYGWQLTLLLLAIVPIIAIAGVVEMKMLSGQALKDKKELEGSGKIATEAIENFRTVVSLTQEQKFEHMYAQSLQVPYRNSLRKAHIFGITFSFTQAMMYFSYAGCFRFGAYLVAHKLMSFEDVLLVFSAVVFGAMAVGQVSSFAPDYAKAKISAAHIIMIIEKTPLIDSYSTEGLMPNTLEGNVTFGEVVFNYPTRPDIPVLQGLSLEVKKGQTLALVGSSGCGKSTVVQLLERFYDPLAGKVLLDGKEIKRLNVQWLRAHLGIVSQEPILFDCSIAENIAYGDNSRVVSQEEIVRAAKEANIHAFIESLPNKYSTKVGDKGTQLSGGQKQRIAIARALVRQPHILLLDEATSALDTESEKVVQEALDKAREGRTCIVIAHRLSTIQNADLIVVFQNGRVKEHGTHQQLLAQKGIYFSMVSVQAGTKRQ
P-glycoprotein (P-gp), sequence (P08183 whole entry): as above

Structure (SMILES): CC(O)c1cc(C(=O)N[C@@H](C)Cn2ccc(-c3ccc(C#N)c(Cl)c3)n2)[nH]n1 (some centres unmarked) [Darolutamide]
- effect of co-administration on CYP3A4/P-gp substrates ([1]; Phase I): no effect or only minor effects
- increase of rosuvastatin exposure with darolutamide ([1]; because of BCRP and probably also OATPB1/OATPB3 inhibition): 5.2 fold
- increase of darolutamide exposure ([1]; co-administered itraconazole, Phase I): 1.75 fold
- decrease of darolutamide exposure ([1]; with rifampicin, Phase I): 72%
- binding affinity to the AR [2]: greater affinity than bicalutamide; also recorded: high affinity
- risk of clinically relevant DDIs via CYP inhibition [3]: very low
- tumor regression ([4]; non-castrate hormone-sensitive and bicalutamide-resistant human prostate cancer xenograft models): partial or complete tumor regression
- prostate tumor progression ([4]; several cell line- and patient derived models): inhibits prostate tumor progression
- inhibition of OAT3-mediated transport [5]: observed
- carcinogenic potential [6]: no carcinogenic potential
- substrate for P-gp [7]: substrate
- inhibition of P-gp-mediated transport [8]: observed
- substrate for BCRP [9]: substrate
- induction of CYP2B6 activity [10]: no relevant induction
- interconversion of the diastereoisomers (S,R)- and (S,S)- via keto-darolutamide [11]: Rapid interconversion
- inhibition of BCRP-mediated transport [12]: observed
- major metabolites observed in plasma [13]: Only one major metabolite, keto-darolutamide
- additional changes to reproductive tissues [14]: testicular hypospermia, seminiferous tubule dilatation and degeneration
- deaths during the treatment period [14]: No deaths occurred
- other adverse effects [14]: No other adverse effects were observed
- reversibility of changes in the male reproductive organs [14]: reversed or partially resolved
- induction of CYP1A2 activity [15]: no relevant induction
- additional changes to reproductive tissues [16]: minimal increase in vacuolation of the pituitary gland, atrophy and secretory reduction in seminal vesicles and mammary glands
- deaths during the treatment period [16]: No deaths occurred
- other adverse effects [16]: No other adverse effects were observed
- reversibility of changes in the male reproductive organs [16]: reversed or partially resolved
